Test results taken from ChEMBL document CHEMBL5291721, “A preclinical secondary pharmacology resource illuminates target-adverse drug reaction associations of marketed drugs” (Nat Commun, 2023).

Assays:
Estrogen receptor = molecular target: T1, Estrogen receptor (Homo sapiens, UniProt P03372)
T1 sequence (P03372 whole entry): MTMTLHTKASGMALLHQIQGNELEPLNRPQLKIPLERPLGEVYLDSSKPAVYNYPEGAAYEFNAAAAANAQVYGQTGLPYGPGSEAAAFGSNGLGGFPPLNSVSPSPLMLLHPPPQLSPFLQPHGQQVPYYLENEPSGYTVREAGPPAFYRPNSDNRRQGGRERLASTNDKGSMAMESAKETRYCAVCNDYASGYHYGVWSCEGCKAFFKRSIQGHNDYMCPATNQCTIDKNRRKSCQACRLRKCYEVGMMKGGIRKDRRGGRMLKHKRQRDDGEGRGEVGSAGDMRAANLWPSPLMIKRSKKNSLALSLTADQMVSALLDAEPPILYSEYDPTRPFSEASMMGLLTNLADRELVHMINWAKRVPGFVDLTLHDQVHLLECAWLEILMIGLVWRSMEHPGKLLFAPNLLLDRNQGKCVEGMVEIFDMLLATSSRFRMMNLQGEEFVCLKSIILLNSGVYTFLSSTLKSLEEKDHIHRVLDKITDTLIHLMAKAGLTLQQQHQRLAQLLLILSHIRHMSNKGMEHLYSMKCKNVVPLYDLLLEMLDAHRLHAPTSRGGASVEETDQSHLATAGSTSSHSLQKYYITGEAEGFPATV

[1] = molecular target: T2, 5-hydroxytryptamine receptor 2C (Homo sapiens, UniProt P28335)
T2 sequence (P28335 whole entry): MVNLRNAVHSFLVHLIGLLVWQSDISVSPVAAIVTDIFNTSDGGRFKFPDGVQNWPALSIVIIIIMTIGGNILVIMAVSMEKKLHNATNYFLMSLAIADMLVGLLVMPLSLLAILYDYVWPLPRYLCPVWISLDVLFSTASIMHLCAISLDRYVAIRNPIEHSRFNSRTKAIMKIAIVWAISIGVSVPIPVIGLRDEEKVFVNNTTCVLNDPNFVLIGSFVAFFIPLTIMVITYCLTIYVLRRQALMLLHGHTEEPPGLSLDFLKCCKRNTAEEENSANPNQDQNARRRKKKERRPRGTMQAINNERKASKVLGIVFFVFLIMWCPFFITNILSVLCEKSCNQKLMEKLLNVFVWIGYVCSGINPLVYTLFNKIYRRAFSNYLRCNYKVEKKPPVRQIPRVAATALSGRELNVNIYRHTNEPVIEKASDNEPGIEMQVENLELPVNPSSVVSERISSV

[2] = molecular target: T3, Alpha-2A adrenergic receptor (Homo sapiens, UniProt P08913); type: functional, cell-based
T3 sequence (P08913 whole entry): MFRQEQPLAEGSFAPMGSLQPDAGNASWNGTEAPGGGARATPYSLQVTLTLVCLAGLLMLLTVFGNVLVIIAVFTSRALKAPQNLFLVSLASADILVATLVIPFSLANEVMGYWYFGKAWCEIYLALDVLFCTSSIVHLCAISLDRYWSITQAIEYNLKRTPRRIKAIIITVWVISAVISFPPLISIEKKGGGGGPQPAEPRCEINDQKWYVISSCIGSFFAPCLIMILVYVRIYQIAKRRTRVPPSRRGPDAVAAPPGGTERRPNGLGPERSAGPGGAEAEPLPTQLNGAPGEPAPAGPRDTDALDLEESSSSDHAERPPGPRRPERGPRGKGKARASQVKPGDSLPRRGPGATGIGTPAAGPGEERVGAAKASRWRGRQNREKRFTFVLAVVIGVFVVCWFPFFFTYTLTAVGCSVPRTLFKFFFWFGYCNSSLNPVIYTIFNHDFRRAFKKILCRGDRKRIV

Thromboxane A2 receptor = molecular target: T4, Thromboxane A2 receptor (Homo sapiens, UniProt P21731)
T4 sequence (P21731 whole entry): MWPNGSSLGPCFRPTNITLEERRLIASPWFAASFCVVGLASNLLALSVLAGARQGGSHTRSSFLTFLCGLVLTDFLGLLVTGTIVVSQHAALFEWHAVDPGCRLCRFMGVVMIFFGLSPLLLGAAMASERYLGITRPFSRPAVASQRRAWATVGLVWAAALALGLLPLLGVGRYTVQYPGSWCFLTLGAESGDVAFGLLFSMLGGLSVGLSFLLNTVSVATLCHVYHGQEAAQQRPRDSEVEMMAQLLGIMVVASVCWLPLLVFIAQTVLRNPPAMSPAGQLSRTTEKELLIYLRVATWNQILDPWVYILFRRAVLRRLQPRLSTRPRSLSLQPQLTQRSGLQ

Glucocorticoid receptor = molecular target: T5, Glucocorticoid receptor (Homo sapiens, UniProt P04150)
T5 sequence (P04150 whole entry): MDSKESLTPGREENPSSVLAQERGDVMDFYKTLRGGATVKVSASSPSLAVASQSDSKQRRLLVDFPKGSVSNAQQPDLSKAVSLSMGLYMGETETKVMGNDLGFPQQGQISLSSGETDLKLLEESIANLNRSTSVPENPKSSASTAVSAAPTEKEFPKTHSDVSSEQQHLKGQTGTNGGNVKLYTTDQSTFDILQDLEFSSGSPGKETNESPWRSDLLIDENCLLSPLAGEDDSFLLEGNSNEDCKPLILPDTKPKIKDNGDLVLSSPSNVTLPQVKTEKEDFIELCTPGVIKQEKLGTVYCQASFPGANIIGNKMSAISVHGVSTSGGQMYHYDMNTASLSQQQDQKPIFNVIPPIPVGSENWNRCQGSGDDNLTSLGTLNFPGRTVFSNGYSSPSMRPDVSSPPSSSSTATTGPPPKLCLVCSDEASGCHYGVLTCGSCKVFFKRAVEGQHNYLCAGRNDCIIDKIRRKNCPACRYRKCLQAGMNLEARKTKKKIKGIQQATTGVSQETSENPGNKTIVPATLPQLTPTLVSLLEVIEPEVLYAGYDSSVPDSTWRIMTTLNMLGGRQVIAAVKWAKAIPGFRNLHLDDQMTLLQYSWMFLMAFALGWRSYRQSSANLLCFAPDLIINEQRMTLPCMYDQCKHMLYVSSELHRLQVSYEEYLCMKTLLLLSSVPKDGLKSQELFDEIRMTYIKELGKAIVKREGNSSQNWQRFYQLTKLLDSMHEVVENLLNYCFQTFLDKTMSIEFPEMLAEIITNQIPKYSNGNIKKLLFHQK
Also: assay procedure not described here.

Row | SMILES | AC50 (Estrogen receptor) | AC50 [1] | AC50 [2] | AC50 (Thromboxane A2 receptor) | AC50 (Glucocorticoid receptor)
1 | CC(=O)SC[C@@H](C)C(=O)N1CCC[C@H]1C(=O)N[C@@H](Cc1ccccc1)C(=O)O | > 30 µM | > 30 µM | > 30 µM | > 30 µM | –
2 | C#CCOc1ccc(N)cc1C(=O)NCCCC [PARSALMIDE] | > 30 µM | > 30 µM | > 30 µM | > 30 µM | > 30 µM
3 | OCc1cc(C(O)CNCCCCCCOCCCCc2ccccc2)ccc1O (stereo not given) [SALMETEROL] | > 30 µM | > 30 µM | > 10 µM | > 30 µM | > 30 µM
4 | CC1=C(C)C(=O)C(C(CCCCCC(=O)O)c2ccccc2)=C(C)C1=O (stereo not given) [SERATRODAST] | > 30 µM | > 30 µM | > 30 µM | – | > 30 µM
5 | C=C1/C(=C\C=C2/CCC[C@]3(C)[C@@H]([C@H](C)/C=C/[C@@H](O)C4CC4)CC[C@@H]23)C[C@@H](O)C[C@@H]1O [CALCIPOTRIENE] | > 10 µM | > 30 µM | > 30 µM | > 30 µM | > 30 µM
6 | Nc1cc(-c2ccncc2)c[nH]c1=O [INAMRINONE] | > 30 µM | > 30 µM | > 10 µM | > 30 µM | > 30 µM
7 | COc1cc2c(cc1OC)C(CCc1ccc(Cl)cc1)N(C)CC2 (stereo not given) [METHOPHOLINE] | > 30 µM | > 30 µM | > 10 µM | > 30 µM | > 30 µM
8 | Cc1ncc2n1-c1ccc(Cl)cc1C(c1ccccc1F)=NC2 [MIDAZOLAM] | > 30 µM | > 30 µM | > 10 µM | > 30 µM | > 30 µM
9 | CC(=O)[C@]1(O)Cc2c(O)c3c(c(O)c2[C@@H](O[C@H]2C[C@H](N)[C@H](O)[C@H](C)O2)C1)C(=O)c1ccccc1C3=O [IDARUBICIN] | – | 9.3 µM | – | > 30 µM | 0.11 µM
10 | CCN(CC)C(=O)Nc1ccc(OCC(O)CNC(C)(C)C)c(C(C)=O)c1 (stereo not given) [CELIPROLOL] | > 30 µM | > 30 µM | > 30 µM | > 30 µM | > 30 µM
11 | Oc1ccc2c(c1)[C@@]13CCCC[C@@]1(O)[C@@H](C2)N(CC1CCC1)CC3 [BUTORPHANOL] | > 30 µM | > 30 µM | > 30 µM | – | > 30 µM
12 | O=C(O)CCNC(=O)c1ccccc1 [BETAMIPRON] | > 30 µM | > 30 µM | > 30 µM | > 30 µM | > 30 µM
13 | O=C(O)c1ccccc1Nc1cc(Cl)ccc1C(=O)O [LOBENZARIT] | > 30 µM | > 30 µM | > 30 µM | > 30 µM | > 30 µM
14 | C/C(=C\C(=O)OCCCCCCCCC(=O)O)C[C@@H]1OC[C@H](C[C@@H]2O[C@H]2[C@@H](C)[C@H](C)O)[C@@H](O)[C@H]1O [MUPIROCIN] | > 10 µM | > 30 µM | > 10 µM | > 10 µM | > 10 µM
15 | C=C[C@@]1(C)CC(=O)[C@]2(O)[C@@]3(C)[C@@H](O)CCC(C)(C)[C@@H]3[C@H](O)[C@H](OC(C)=O)[C@@]2(C)O1 [COLFORSIN] | > 30 µM | > 30 µM | > 30 µM | > 30 µM | > 30 µM
16 | CCC(COC(=O)c1cc(OC)c(OC)c(OC)c1)(c1ccccc1)N(C)C (stereo not given) [TRIMEBUTINE] | – | > 30 µM | > 30 µM | > 30 µM | > 30 µM
17 | CCCCCCCCCCCCCCCCCCCCCC(=O)Nc1ccn([C@@H]2O[C@H](CO)[C@@H](O)[C@@H]2O)c(=O)n1 [ENOCITABINE] | – | – | > 30 µM | > 30 µM | > 30 µM
18 | CC(=O)OCC(=O)[C@@]1(O)[C@H](C)C[C@H]2[C@@H]3CCC4=CC(=O)C=C[C@]4(C)[C@@]3(F)[C@@H](O)C[C@@]21C [DEXAMETHASONE ACETATE] | – | > 30 µM | > 10 µM | 16 µM | –
19 | COc1ccc(-c2noc(CC(=O)O)c2-c2ccc(OC)cc2)cc1 [MOFEZOLAC] | – | > 30 µM | > 30 µM | > 30 µM | > 30 µM
20 | NC1CCN(c2nc3c(cc2F)c(=O)c(C(=O)O)cn3-c2ccc(F)cc2F)C1 (stereo not given) [TOSUFLOXACIN] | > 30 µM | > 30 µM | > 30 µM | > 30 µM | > 30 µM
21 | Cn1c(=O)cc(N2CCC[C@@H](N)C2)n(Cc2ccccc2C#N)c1=O [ALOGLIPTIN] | > 30 µM | > 30 µM | – | > 30 µM | > 30 µM
22 | CCCCCC(=O)O[C@]1(C(C)=O)CC[C@H]2[C@@H]3CCC4=CC(=O)CC[C@]4(C)[C@H]3CC[C@@]21C [HYDROXYPROGESTERONE CAPROATE] | > 30 µM | > 30 µM | > 30 µM | > 30 µM | 0.007 µM
23 | Cn1cnc2c(F)c(Nc3ccc(Br)cc3Cl)c(C(=O)NOCCO)cc21 [SELUMETINIB] | – | – | – | > 30 µM | –
24 | NC(=O)CN1CCCC1=O | – | > 30 µM | > 30 µM | > 30 µM | > 30 µM
25 | C[N@+]1(CCF)[C@@H]2CC[C@H]1C[C@@H](OC(=O)C(O)(c1ccccc1)c1ccccc1)C2 | > 30 µM | > 30 µM | > 30 µM | > 30 µM | > 30 µM
26 | CC(=O)[C@@]1(O)CC[C@H]2[C@@H]3C=C(Cl)C4=CC(=O)[C@@H]5C[C@@H]5[C@]4(C)[C@H]3CC[C@@]21C [CYPROTERONE] | > 30 µM | > 30 µM | > 10 µM | > 10 µM | –
27 | CCOC(=O)O[C@]1(C(=O)OCCl)CC[C@H]2[C@@H]3CCC4=CC(=O)C=C[C@]4(C)[C@H]3[C@@H](O)C[C@@]21C [LOTEPREDNOL ETABONATE] | – | > 30 µM | > 30 µM | > 30 µM | 0.0056 µM
28 | CCN1CCCC1CNC(=O)c1cc(S(=O)(=O)CC)c(N)cc1OC (stereo not given) [AMISULPRIDE] | > 30 µM | > 30 µM | > 30 µM | – | > 30 µM
